Test results: PMC9090415, “Discovery of small molecule inhibitors of Plasmodium falciparum apicoplast DNA polymerase” (Journal of Enzyme Inhibition and Medicinal Chemistry, 2022)

Biological target: P. falciparum apicoplast DNA polymerase (Pf-apPOL) (Plasmodium falciparum, UniProt Q8ILY1)
Assay: Fluorescence-based high-throughput DNA polymerase assay (molecular beacon), primary screen and dose-response
Assay type: biochemical
Settings: for DNA Pol: 90 min, 10 µM; for % inhibition apPOL 180' 2.5 / % inhibition apPOL 180' 5 / % inhibition apPOL 180' 10 / % inhibition apPOL 180' 20 / % inhibition apPOL 180' 40 / % inhibition apPOL 180' 80: read at 180'
In short: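 Single-point screening used 10 µM compound with 20 nM polymerase, 20 nM hairpin substrate and 6 µM dNTPs for 90 min at 25 °C. Confirmatory titrations (2.5–80 µM) followed fluorescence at three times, and IC50 was derived from a fit including a cooperativity term n.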

P. falciparum apicoplast DNA polymerase (Pf-apPOL), sequence (Q8ILY1 entry or part of it): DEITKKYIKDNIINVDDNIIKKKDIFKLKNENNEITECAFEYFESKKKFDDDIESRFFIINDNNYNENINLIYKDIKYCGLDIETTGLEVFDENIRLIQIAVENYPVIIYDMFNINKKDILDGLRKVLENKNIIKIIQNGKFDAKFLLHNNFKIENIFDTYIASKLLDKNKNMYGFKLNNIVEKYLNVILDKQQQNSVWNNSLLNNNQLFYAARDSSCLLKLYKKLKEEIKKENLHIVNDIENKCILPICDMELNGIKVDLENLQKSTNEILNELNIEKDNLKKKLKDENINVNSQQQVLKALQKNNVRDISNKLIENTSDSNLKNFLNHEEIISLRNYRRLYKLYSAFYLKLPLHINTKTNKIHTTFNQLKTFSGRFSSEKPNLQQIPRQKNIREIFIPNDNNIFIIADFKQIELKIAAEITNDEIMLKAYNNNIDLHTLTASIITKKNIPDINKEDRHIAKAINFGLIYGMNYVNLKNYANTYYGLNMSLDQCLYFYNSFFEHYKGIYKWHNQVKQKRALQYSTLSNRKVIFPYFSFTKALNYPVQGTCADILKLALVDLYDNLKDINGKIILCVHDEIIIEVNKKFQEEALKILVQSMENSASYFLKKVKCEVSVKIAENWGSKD

## Nc1cc(Oc2ccc(O)c(N)c2)ccc1O [KU0034728]
186 hits, DNA Pol (screen value), unit not given
  DNA Pol: 65
'DNA Pol' (screen value), unit not given
  DNA Pol: 65
DRC-1, read at 10', concentration 2.5
  % inhibition Apo pol 10' 2.5: 19.846%
DRC-1, read at 10', concentration 5
  % inhibition Apo pol 10' 5: 31.2811%
DRC-1, read at 10', concentration 10
  % inhibition Apo pol 10' 10: 55.4709%
DRC-1, read at 10', concentration 20
  % inhibition Apo pol 10' 20: 70.5604%
DRC-1, read at 10', concentration 40
  % inhibition Apo pol 10' 40: 80.3003%
DRC-1, read at 10', concentration 80
  % inhibition Apo pol 10' 80: 87.2374%
DRC-1, read at 90', concentration 2.5
  % inhibition Apol 90' 2.5: 8.186%
DRC-1, read at 90', concentration 5
  % inhibition Apol 90' 5: 16.785%
DRC-1, read at 90', concentration 10
  % inhibition Apol 90' 10: 34.847%
DRC-1, read at 90', concentration 20
  % inhibition Apol 90' 20: 48.9946%
DRC-1, read at 90', concentration 40
  % inhibition Apol 90' 40: 59.758%
DRC-1, read at 90', concentration 80
  % inhibition Apol 90' 80: 68.9049%
DRC-1, concentration 2.5
  % inhibition apPOL 180' 2.5: 2.338%
DRC-1, concentration 5
  % inhibition apPOL 180' 5: 7.101%
DRC-1, concentration 10
  % inhibition apPOL 180' 10: 22.2951%
DRC-1, concentration 20
  % inhibition apPOL 180' 20: 34.6321%
DRC-1, concentration 40
  % inhibition apPOL 180' 40: 46.6312%
DRC-1, concentration 80
  % inhibition apPOL 180' 80: 55.3391%
DRC-2, concentration 5
  % inhibition Apo pol 5': 43%
  % inhibition apPOL 180' 5: 26%
DRC-2, concentration 20
  % inhibition Apol 40': 65%
  % inhibition ApPOL 90': 65%
  % inhibition apPOL 180' 20: 59%
DRC-2, concentration 40
  % inhibition Apol 40': 74%
  % inhibition apPOL 180': 74%
  % inhibition apPOL 180' 40: 74%
DRC-2, concentration 2.5
  % inhibition ApPOL 90': 43%
  % inhibition apPOL 180' 2.5: 31%
DRC-2, concentration 10
  % inhibition apPOL 180': 43%
  % inhibition apPOL 180' 10: 43%
DRC-2, read at 5', concentration 2.5
  % inhibition Apo pol 5' 2.5: 42%
DRC-2, read at 5', concentration 5
  % inhibition Apo pol 5' 5: 43%
DRC-2, read at 5', concentration 10
  % inhibition Apo pol 5' 10: 50%
DRC-2, read at 5', concentration 20
  % inhibition Apo pol 5' 20: 52%
DRC-2, read at 5', concentration 40
  % inhibition Apo pol 5' 40: 56%
DRC-2, read at 5', concentration 80
  % inhibition Apo pol 5' 80: 30%
DRC-2, read at 40', concentration 2.5
  % inhibition Apol 40' 2.5: 47%
DRC-2, read at 40', concentration 5
  % inhibition Apol 40' 5: 44%
DRC-2, read at 40', concentration 10
  % inhibition Apol 40' 10: 57%
DRC-2, read at 40', concentration 20
  % inhibition Apol 40' 20: 65%
DRC-2, read at 40', concentration 40
  % inhibition Apol 40' 40: 74%
DRC-2, read at 40', concentration 80
  % inhibition Apol 40' 80: 64%
DRC-2, read at 90', concentration 2.5
  % inhibition ApPOL 90' 2.5: 43%
DRC-2, read at 90', concentration 5
  % inhibition ApPOL 90' 5: 40%
DRC-2, read at 90', concentration 10
  % inhibition ApPOL 90' 10: 55%
DRC-2, read at 90', concentration 20
  % inhibition ApPOL 90' 20: 65%
DRC-2, read at 90', concentration 40
  % inhibition ApPOL 90' 40: 76%
DRC-2, read at 90', concentration 80
  % inhibition ApPOL 90' 80: 71%
DRC-2, concentration 80
  % inhibition apPOL 180' 80: 75%

## Cc1ccc2c(C(=O)NCCc3cccnc3)cc(NC(=O)C(C)C)cc2n1 [KU0206096]
"DNA Pol" of the 186 hits list (screen value)
  DNA Pol: 22
DRC-1, concentration 2.5
  % inhibition Apo pol 10': 2.289%
  % inhibition Apol 90': -0.2653%
  % inhibition apPOL 180': -4.525%
DRC-1, concentration 5
  % inhibition Apo pol 10': 10.1779%
  % inhibition Apol 90': 3.264%
  % inhibition apPOL 180': -3.235%
DRC-1, concentration 10
  % inhibition Apo pol 10': 28.6368%
  % inhibition Apol 90': 15.2748%
  % inhibition apPOL 180': 5.405%
DRC-1, concentration 20
  % inhibition Apo pol 10': 37.57%
  % inhibition Apol 90': 20.9182%
  % inhibition apPOL 180': 7.166%
DRC-1, concentration 40
  % inhibition Apo pol 10': 75.2311%
  % inhibition Apol 90': 58.3993%
  % inhibition apPOL 180': 41.4073%
DRC-1, concentration 80
  % inhibition Apo pol 10': 89.4827%
  % inhibition Apol 90': 83.2702%
  % inhibition apPOL 180': 75.1879%
DRC-2, concentration 2.5
  % inhibition Apo pol 5': -0.312%
  % inhibition Apol 40': 1.82%
  % inhibition ApPOL 90': 1.09%
  % inhibition apPOL 180': -1.29%
DRC-2, concentration 5
  % inhibition Apo pol 5': 5.56%
  % inhibition Apol 40': 5.58%
  % inhibition ApPOL 90': 5.45%
  % inhibition apPOL 180': 2.66%
DRC-2, concentration 10
  % inhibition Apo pol 5': 24%
  % inhibition Apol 40': 24%
  % inhibition ApPOL 90': 21%
  % inhibition apPOL 180': 13%
DRC-2, concentration 20
  % inhibition Apo pol 5': 40%
  % inhibition Apol 40': 42%
  % inhibition ApPOL 90': 39%
  % inhibition apPOL 180': 28%
DRC-2, concentration 40
  % inhibition Apo pol 5': 49%
  % inhibition Apol 40': 62%
  % inhibition ApPOL 90': 63%
  % inhibition apPOL 180': 57%
DRC-2, concentration 80
  % inhibition Apo pol 5': 49%
  % inhibition Apol 40': 70%
  % inhibition ApPOL 90': 75%
  % inhibition apPOL 180': 78%
Primary screen value, DNA Pol
  DNA Pol: 22

## O=C(NNC(=O)c1ccc(Cl)cc1)C(=O)NNC(=O)c1ccc(Cl)cc1 [Molecule 25, O=C(C(=O)NNC(=O)c1ccc(cc1)Cl)NNC(=O)c1ccc(cc1)Cl]
'DNA Pol' of the 186 hits list (primary screen value)
  DNA Pol: 75
DNA Pol (primary screen value)
  DNA Pol: 75
DRC-1, concentration 2.5
  % inhibition Apo pol 10': 0.1123%
  % inhibition Apol 90': -1.798%
  % inhibition apPOL 180': -4.906%
DRC-1, concentration 5
  % inhibition Apo pol 10': 29.8674%
  % inhibition Apol 90': 28.7698%
  % inhibition apPOL 180': 25.5591%
DRC-1, concentration 10
  % inhibition Apo pol 10': 53.2072%
  % inhibition Apol 90': 48.8169%
  % inhibition apPOL 180': 45.9729%
DRC-1, concentration 20
  % inhibition Apo pol 10': 61.5061%
  % inhibition Apol 90': 54.9619%
  % inhibition apPOL 180': 50.6657%
DRC-1, concentration 40
  % inhibition Apo pol 10': 64.1413%
  % inhibition Apol 90': 57.5316%
  % inhibition apPOL 180': 53.135%
DRC-1, concentration 80
  % inhibition Apo pol 10': 75.0048%
  % inhibition Apol 90': 69.6376%
  % inhibition apPOL 180': 64.4119%
DRC-2, concentration 2.5
  % inhibition Apo pol 5': 2.6%
  % inhibition Apol 40': 2%
  % inhibition ApPOL 90': 0.656%
  % inhibition apPOL 180': -2.65%
DRC-2, concentration 5
  % inhibition Apo pol 5': 10%
  % inhibition Apol 40': 13%
  % inhibition ApPOL 90': 13%
  % inhibition apPOL 180': 7.39%
DRC-2, concentration 10
  % inhibition Apo pol 5': 29%
  % inhibition Apol 40': 35%
  % inhibition ApPOL 90': 36%
  % inhibition apPOL 180': 30%
DRC-2, concentration 20
  % inhibition Apo pol 5': 45%
  % inhibition Apol 40': 54%
  % inhibition ApPOL 90': 54%
  % inhibition apPOL 180': 48%
DRC-2, concentration 40
  % inhibition Apo pol 5': 49%
  % inhibition Apol 40': 58%
  % inhibition ApPOL 90': 60%
  % inhibition apPOL 180': 55%
DRC-2, concentration 80
  % inhibition Apo pol 5': 51%
  % inhibition Apol 40': 62%
  % inhibition ApPOL 90': 64%
  % inhibition apPOL 180': 62%
